Experimental data from patent US20040034219A1, “Benzothiophene derivative compounds process of preparation and use thereof” (priority 2000, published 2004).
Counter-ions that a name gives are not always drawn.

Columns and labels:
serotonin transporter = target: T1, serotonin transporter (Rattus norvegicus, UniProt P31652); assay: Tests of fixing to the serotonin transporter (5-HT), 3H-paroxetine displacement; format: binding; conditions: membranes of rat cerebral cortex, 3H-paroxetine 0.1 nM, 60 minutes at 22° C.
T1 construct: a fraction of semi-purified membranes of the cerebral cortex of rat; from tissue; host or cells: rat cerebral cortex membranes
Description: Tests of Fixing to the Serotonin Transporter (5-HT)
The biological material used was a fraction of semi-purified membranes of the cerebral cortex of rat, obtained using the method described above.
The membrane fraction was resuspended in Tris-HCl 50 mM, pH 7.4 at 40° C., which contained NaCl 120 mM and KCl 5 mM, and was incubated with ^3H-paroxetine 0.1 nM and different concentrations of fluoxetine as displacing agent. At the end of the period of incubation of 60 minutes at 22° C. the membrane fraction was separated by rapid filtration and the radioactivity of the combined fraction quantified by means of liquid scintillation.
(§1) The results are expressed as the Ki of the serotonin transporter and the Ki of the 5-HT1A receptor.

5-HT1A receptors = target: T2, 5-HT1A receptors (Rattus norvegicus, UniProt P19327); assay: Tests for fixing to serotonin 5HT1A receptors, 3H-DPAT displacement; format: binding; conditions: membranes of rat cerebral cortex, 3H-DPAT 1 nM, 15 minutes at 37° C.
T2 construct: fraction of membranes isolated from the cerebral cortex of rats; from tissue; host or cells: rat cerebral (frontal) cortex membranes
T2 sequence (P19327 1-422): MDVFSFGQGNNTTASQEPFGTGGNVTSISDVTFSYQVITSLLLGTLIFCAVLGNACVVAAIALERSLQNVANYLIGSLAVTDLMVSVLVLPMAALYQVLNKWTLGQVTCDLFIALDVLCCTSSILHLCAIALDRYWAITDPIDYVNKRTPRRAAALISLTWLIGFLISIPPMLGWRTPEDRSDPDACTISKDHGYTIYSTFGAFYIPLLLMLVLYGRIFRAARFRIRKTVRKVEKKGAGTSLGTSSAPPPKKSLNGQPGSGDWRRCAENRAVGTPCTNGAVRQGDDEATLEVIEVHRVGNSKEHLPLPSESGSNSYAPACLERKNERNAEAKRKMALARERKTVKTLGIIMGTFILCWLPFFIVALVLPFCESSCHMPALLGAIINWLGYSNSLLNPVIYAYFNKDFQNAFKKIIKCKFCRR
Description: Tests for Fixing to Serotonin 5HT1A Receptors
The technique described by Hoyer and collaborators (Eur. J. Pharmacol. 118:13-23.1985) was used to determine the affinity of the products for the 5-HT1A receptors. The studies were carried out with the fraction of membranes isolated from the cerebral cortex of rats. The agonist ^3H-Dipropylaminotetraline (DPAT) was used as specific ligand, while non-radioactive DPAT was used as displacing ligand.
In order to isolate the fraction of membranes, the frontal cortex of the rat was dissected and homogenised in Tris-HCl 50 mM, pH 7.7 at 4° C. The resulting homogenate was centrifuged at 25000 rpm for 15 minutes at 4° C. and the sediment resuspended in Tris-HCl containing CaCl2 4 mM. For the fixing test the suspension of membranes was incubated with ^3H-DPAT (1 nM) and different concentrations of the cold displacing agent. Once the incubation period of 15 minutes at 37° C. had elapsed, the membrane fraction was separated by means of rapid filtration and the radioactivity of the combined fraction quantified by means of liquid scintillation.
as §1

T1 sequence (P31652 whole entry): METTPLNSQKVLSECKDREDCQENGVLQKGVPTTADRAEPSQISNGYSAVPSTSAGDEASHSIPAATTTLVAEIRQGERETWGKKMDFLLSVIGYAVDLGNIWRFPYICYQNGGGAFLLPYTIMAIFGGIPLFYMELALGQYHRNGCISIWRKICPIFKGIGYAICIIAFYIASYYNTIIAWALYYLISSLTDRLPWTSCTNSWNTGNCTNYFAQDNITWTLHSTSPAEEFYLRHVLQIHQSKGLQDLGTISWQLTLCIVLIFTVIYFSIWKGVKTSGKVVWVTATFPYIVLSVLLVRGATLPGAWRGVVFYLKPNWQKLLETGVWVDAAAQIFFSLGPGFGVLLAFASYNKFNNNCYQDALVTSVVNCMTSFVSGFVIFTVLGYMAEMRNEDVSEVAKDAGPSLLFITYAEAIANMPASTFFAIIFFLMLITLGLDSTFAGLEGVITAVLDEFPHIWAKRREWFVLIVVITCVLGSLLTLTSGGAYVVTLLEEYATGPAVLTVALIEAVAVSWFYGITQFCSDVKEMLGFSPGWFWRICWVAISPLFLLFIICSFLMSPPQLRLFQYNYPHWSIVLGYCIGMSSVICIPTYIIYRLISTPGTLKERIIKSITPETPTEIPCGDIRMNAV

Ki (serotonin transporter) [nM]	Ki (5-HT1A receptors) [nM]	melting point [°C]	Structure (SMILES)
2.2	546		OC(CCN1CCN(c2ccc3ncccc3c2)CC1)c1csc2ccccc12 (stereo not drawn) [Example 47, 1-(benzo[b]thiophen-3-yl)-3-[4-(quinol-6-yl)piperazin-1-yl]propan-1-ol]
		134 to 136	O=C(CCN1CCN(c2ccnc3ccccc23)CC1)c1csc2ccccc12 [Example 15, 1-(benzo[b]thiophen-3-yl) -3-[4-(quinol-4-yl)piperazin-1-yl]propan-1-one]
		92 to 96	O=C(CCN1CCN(c2ccc3ccccc3n2)CC1)c1csc2ccccc12 [Example 14, 1-(benzo[b]thiophen-3-yl)-3-[4-(quinol-2-yl)piperazin-1-yl]propan-1-one]
6.2	18.2		Oc1ccc2scc(C(O)CCN3CCN(c4cccc5c4OCCO5)CC3)c2c1 (stereo not drawn) [Example 50, 1-(5-hydroxybenzo[b]thiophen-3-yl)-3-[4-(2,3-dihydro-1,4-benzodioxyn-5-yl)piperazin-1-yl]propan-1-ol]
6.9	14		O=[N+]([O-])c1ccc2scc(C(O)CCN3CCN(c4cccc5c4OCCO5)CC3)c2c1 (stereo not drawn) [Example 39, 1-(5-nitrobenzo[b]thiophen-3-yl)-3-[14-(2,3-dihydro-1,4-benzodioxyn-5-yl)piperazin-1-yl]propan-1-ol]
		150 to 152	Cl.Cl.O=C(CCN1CCN(c2cccc3cccnc23)CC1)c1csc2ccccc12
		112 to 114	O=C(CCN1CCN(c2cnc3ccccc3c2)CC1)c1csc2ccccc12 [Example 16, 1-(benzo [b]thiophen-3-yl) -3-[4-(quinol-3-yl)piperazin-1-yl]propan-1-one]
8.6	1.5	169 to 170	Cl.OC(CCN1CCN(c2cccc3cccnc23)CC1)c1csc2ccccc12 (stereo not drawn) [Example 33, 1-(benzo[b]thiophen-3-yl)-3-[4-(quinol-8-yl)piperazin-1-yl]propan-1-ol hydrochloride]
		83 to 85	O=C(CCN1CCN(c2cccc3[nH]ccc23)CC1)c1csc2ccccc12 [Example 10, 1-(benzo[b]thiophen-3-yl)-3-[4-(indol-4-yl)piperazin-1-yl]propan-1-one]
12.7	26.1	127 to 129	OC(CCN1CCN(c2cccc3ncccc23)CC1)c1csc2ccccc12 (stereo not drawn) [Example 37, 1-(benzo[b]thiophen-3-yl)-3-[4-(quinol-5-yl)piperazin-1-yl]propan-1-ol]
15.9	3.2		O=C(CCN1CCN(c2cccc3c2OCCO3)CC1)c1csc2ccc([N+](=O)[O-])cc12 [Example 21, 1-(5-nitrobenzo[b]thiophen-3-yl)-3-[4-(2,3-dihydro-1,4-benzodioxyn-5-yl)piperazin-1-yl]propan-1-one]
6.4	377		OC(CCN1CCN(c2ccc3ccccc3n2)CC1)c1csc2ccccc12 (stereo not drawn) [Example 44, 1-(benzo [b]thiophen-3-yl) -3-[4-(quinol-2-yl)piperazin-1-yl]propan-1-ol]
9.9	10.2		Cc1ccc2cccc(N3CCN(CCC(O)c4csc5ccccc45)CC3)c2n1 (stereo not drawn) [Example 36, 1-(benzo[b]thiophen-3-yl)-3-[4-(quinaldin-8-yl)piperazin-1-yl]propan-1-ol hydrochloride]
8.5	2.5		Cc1ccc2cccc(N3CCN(CCC(O)c4csc5ccc(F)cc45)CC3)c2n1 (stereo not drawn) [Example 30, 1-(5-fluorobenzo[b]thiophen-3-yl)-3-[4-(quinaldin-8-yl)piperazin-1-yl]propan-1-ol]
7.3	5.9	170 to 173	OC(CCN1CCN(c2cccc3[nH]ccc23)CC1)c1csc2ccc(F)cc12 (stereo not drawn) [Example 29, 1-(5-fluorobenzo[b]thiophen-3-yl)-3-[4-(indol-4-yl)piperazina-1-yl]propan-1-ol]

Structure (SMILES)	Ki (serotonin transporter) [nM]	Ki (5-HT1A receptors) [nM]	melting point [°C]
OC(CCN1CCN(c2cccc3cccnc23)CC1)c1csc2ccc(F)cc12 (stereo not drawn) [Example 27, 1-(5-fluorobenzo[b]thiophen-3-yl)-3-[4-(quinol-8-yl)piperazin-1-yl]propan-1-ol]	7.5	2.7	89 to 91
Cl.OC(CCN1CCN(c2cccc3[nH]ccc23)CC1)c1csc2ccccc12 (stereo not drawn) [Example 35, 1-(benzo[b]thiophen-3-yl)-3-[4-(indol-4-yl)piperazin-1-yl]propan-1-ol hydrochloride]	4.1	5.5	> 300
OC(CCN1CCN(c2ccnc3ccccc23)CC1)c1csc2ccccc12 (stereo not drawn) [Example 45, 1-(benzo[b]thiophen-3-yl)-3-[4-(quinol-4-yl)piperazin-1-yl]propan-1-ol hydrochloride]	19.4	301	
OC(CCN1CCN(c2cccc3c2OCCO3)CC1)c1csc2ccc(F)cc12 (stereo not drawn) [Example 28, 1-(5-fluorobenzo[b]thiophen-3-yl)-3-[4-(2,3-dihydro-1,4-benzodioxyn-5-yl)piperazin-1-yl]propan-1-ol]	14.9	6	147 to 150
